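A five-concentration, 48-hour dose response in 96-well plates underlies each endpoint, interpolated linearly between surrounding concentrations. Abbreviation: GI50, concentration required for 50% inhibition of growth.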 The source made the active and inactive calls. Rule as the data show it: active = GI50 up to about 1.1 µM and inactive = higher.
Assays:
Assay in all cases: growth of human tumour cells (NCI), 48 h
786-0 = tested on: 786-0
A498 = tested on: A498
A549 = tested on: A549
ACHN = tested on: ACHN
BT-549 = tested on: BT-549
CAKI-1 = tested on: CAKI-1
CCRF-CEM = tested on: CCRF-CEM
COLO 205 = tested on: COLO 205
DU-145 = tested on: DU-145
EKVX = tested on: EKVX
HCC 2998 = tested on: HCC 2998
HCT-116 = tested on: HCT-116
HCT-15 = tested on: HCT-15
HL-60 = tested on: HL-60
HOP-62 = tested on: HOP-62
HOP-92 = tested on: HOP-92
HT-29 = tested on: HT-29
Hs-578T = tested on: Hs-578T
IGROV-1 = tested on: IGROV-1
KM12 = tested on: KM12
LOX IMVI = tested on: LOX IMVI
M14 = tested on: M14
MCF7 = tested on: MCF7
MDA-MB-231 = tested on: MDA-MB-231
MDA-MB-435 = tested on: MDA-MB-435
MDA-N = tested on: MDA-N
MOLT-4 = tested on: MOLT-4
Malme-3M = tested on: Malme-3M
NCI-H226 = tested on: NCI-H226
NCI-H23 = tested on: NCI-H23
NCI-H460 = tested on: NCI-H460
NCI-H522 = tested on: NCI-H522
NCI/ADR-RES = tested on: NCI/ADR-RES
OVCAR-3 = tested on: OVCAR-3
OVCAR-4 = tested on: OVCAR-4
OVCAR-5 = tested on: OVCAR-5
OVCAR-8 = tested on: OVCAR-8
PC-3 = tested on: PC-3
RPMI-8226 = tested on: RPMI-8226
SF-268 = tested on: SF-268
SF-295 = tested on: SF-295
SF-539 = tested on: SF-539
SK-MEL-28 = tested on: SK-MEL-28
SK-MEL-2 = tested on: SK-MEL-2
SK-MEL-5 = tested on: SK-MEL-5
SK-OV-3 = tested on: SK-OV-3
SN12C = tested on: SN12C
SNB-19 = tested on: SNB-19
SNB-75 = tested on: SNB-75
SR = tested on: SR
SW-620 = tested on: SW-620
T47D = tested on: T47D
TK-10 = tested on: TK-10
U-251 = tested on: U-251
UACC-257 = tested on: UACC-257
UACC-62 = tested on: UACC-62
UO-31 = tested on: UO-31
K562 = tested on: K562

O=c1[nH]c(Nc2ccc(Br)c(C(F)(F)F)c2)nc2[nH]cnc12 was tested, and the GI50 (786-0) was 40.1 µM (inactive), the GI50 (A498) was 33.4 µM (inactive) and the GI50 (A549) was 72.1 µM (inactive). For the same compound, the GI50 (ACHN) was 43.4 µM (inactive), the GI50 (BT-549) was 62.7 µM (inactive) and the GI50 (CAKI-1) was 50 µM (inactive). For the same compound, the GI50 (CCRF-CEM) was 43.8 µM (inactive), the GI50 (COLO 205) was 20.8 µM (inactive) and the GI50 (DU-145) was 55 µM (inactive). For the same compound, the GI50 (EKVX) was 80.2 µM (inactive), the GI50 (HCC 2998) was 17.9 µM (inactive) and the GI50 (HCT-116) was 48.4 µM (inactive). The GI50 (HCT-15) was 76 µM, the GI50 (HL-60) was 26 µM (inactive) and the GI50 (HOP-62) was 48.8 µM (inactive). For the same compound, the GI50 (HOP-92) was 26.4 µM (inactive), the GI50 (HT-29) was 27.6 µM (inactive) and the GI50 (Hs-578T) was 13.1 µM (inactive). For the same compound, the GI50 (IGROV-1) was 40.4 µM (inactive), the GI50 (KM12) was 29 µM (inactive) and the GI50 (LOX IMVI) was 39.1 µM (inactive). For the same compound, the GI50 (M14) was 30.5 µM (inactive), the GI50 (MCF7) was 51.5 µM (inactive) and the GI50 (MDA-MB-231) was 63.8 µM (inactive). For the same compound, the GI50 (MDA-MB-435) was 30.7 µM (inactive), the GI50 (MDA-N) was 34.4 µM (inactive) and the GI50 (MOLT-4) was 32 µM (inactive). For the same compound, the GI50 (Malme-3M) was 38.8 µM (inactive), the GI50 (NCI-H226) was 47.5 µM (inactive) and the GI50 (NCI-H23) was 38.5 µM (inactive). For the same compound, the GI50 (NCI-H460) was 45.2 µM (inactive), the GI50 (NCI-H522) was 18.5 µM (inactive) and the GI50 (NCI/ADR-RES) was > 100 µM (inactive). The GI50 (OVCAR-3) was 31.8 µM (inactive), the GI50 (OVCAR-4) was 47.1 µM (inactive) and the GI50 (OVCAR-5) was 32.3 µM (inactive). The GI50 (OVCAR-8) was 42.9 µM (inactive), the GI50 (PC-3) was 37.7 µM (inactive) and the GI50 (RPMI-8226) was 47.3 µM (inactive). For the same compound, the GI50 (SF-268) was 28.5 µM (inactive), the GI50 (SF-295) was 54.1 µM (inactive) and the GI50 (SF-539) was 34.5 µM (inactive). The GI50 (SK-MEL-28) was 36.6 µM (inactive), the GI50 (SK-MEL-2) was 20.2 µM (inactive) and the GI50 (SK-MEL-5) was 29.9 µM (inactive). The GI50 (SK-OV-3) was 45.1 µM (inactive), the GI50 (SN12C) was 43.3 µM (inactive) and the GI50 (SNB-19) was 39.6 µM (inactive). The GI50 (SNB-75) was 25.6 µM (inactive), the GI50 (SR) was 37.1 µM (inactive) and the GI50 (SW-620) was 57.9 µM (inactive). For the same compound, the GI50 (T47D) was 32.7 µM (inactive), the GI50 (TK-10) was 83.9 µM (inactive) and the GI50 (U-251) was 36.1 µM (inactive). The GI50 (UACC-257) was 82 µM (inactive), the GI50 (UACC-62) was 23.8 µM (inactive) and the GI50 (UO-31) was 43.9 µM (inactive).

In the case of COC(=O)c1cc2/c(=N/O)c3ccccc3sc2o1, the GI50 (786-0) is reported as > 100 µM (inactive), the GI50 (A498) is reported as > 100 µM (inactive) and the GI50 (A549) is reported as > 100 µM (inactive). The GI50 (ACHN) was > 100 µM (inactive), the GI50 (BT-549) was > 100 µM (inactive) and the GI50 (CAKI-1) was > 100 µM (inactive). For the same compound, the GI50 (CCRF-CEM) was > 100 µM (inactive), the GI50 (COLO 205) was > 100 µM (inactive) and the GI50 (DU-145) was > 100 µM (inactive). The GI50 (EKVX) was > 100 µM (inactive), the GI50 (HCC 2998) was > 100 µM (inactive) and the GI50 (HCT-116) was > 100 µM (inactive). For the same compound, the GI50 (HCT-15) was over 100 µM, the GI50 (HL-60) was > 100 µM (inactive) and the GI50 (HOP-62) was > 100 µM (inactive). For the same compound, the GI50 (HOP-92) was > 100 µM (inactive), the GI50 (HT-29) was > 100 µM (inactive) and the GI50 (Hs-578T) was 55.5 µM (inactive). The GI50 (IGROV-1) was > 100 µM (inactive), the GI50 (K562) was > 100 µM (inactive) and the GI50 (KM12) was > 100 µM (inactive). For the same compound, the GI50 (LOX IMVI) was > 100 µM (inactive), the GI50 (M14) was > 100 µM (inactive) and the GI50 (MCF7) was > 100 µM (inactive). The GI50 (MDA-MB-231) was > 100 µM (inactive), the GI50 (MDA-MB-435) was > 100 µM (inactive) and the GI50 (MDA-N) was > 100 µM (inactive). The GI50 (MOLT-4) was > 100 µM (inactive), the GI50 (Malme-3M) was > 100 µM (inactive) and the GI50 (NCI-H226) was > 100 µM (inactive). The GI50 (NCI-H23) was > 100 µM (inactive), the GI50 (NCI-H460) was 61 µM (inactive) and the GI50 (NCI-H522) was > 100 µM (inactive). The GI50 (NCI/ADR-RES) was > 100 µM (inactive), the GI50 (OVCAR-3) was > 100 µM (inactive) and the GI50 (OVCAR-4) was > 100 µM (inactive). The GI50 (OVCAR-5) was > 100 µM (inactive), the GI50 (OVCAR-8) was > 100 µM (inactive) and the GI50 (PC-3) was > 100 µM (inactive). The GI50 (RPMI-8226) was > 100 µM (inactive), the GI50 (SF-268) was > 100 µM (inactive) and the GI50 (SF-295) was > 100 µM (inactive). The GI50 (SF-539) was > 100 µM (inactive), the GI50 (SK-MEL-28) was > 100 µM (inactive) and the GI50 (SK-MEL-2) was > 100 µM (inactive). The GI50 (SK-MEL-5) was > 100 µM (inactive), the GI50 (SK-OV-3) was > 100 µM (inactive) and the GI50 (SN12C) was > 100 µM (inactive). The GI50 (SNB-19) was > 100 µM (inactive), the GI50 (SNB-75) was > 100 µM (inactive) and the GI50 (SR) was > 100 µM (inactive). For the same compound, the GI50 (SW-620) was > 100 µM (inactive), the GI50 (T47D) was > 100 µM (inactive) and the GI50 (TK-10) was > 100 µM (inactive). The GI50 (U-251) was > 100 µM (inactive), the GI50 (UACC-257) was > 100 µM (inactive) and the GI50 (UACC-62) was > 100 µM (inactive).
